Measurements as given in article PMC8911944, “Screening of Natural Products Inhibitors of SARS-CoV-2 Entry” (Molecules, 2022).
≈ marks a conversion by molar mass, not a printed value.

System: not listed separately
Assay: Cytotoxicity assay, resazurin method
Format: cell-based
Settings: human, HEK293T-ACE2 cells, HEK-293T ACE2 cells, unit inferred
Procedure: (§1) The maximum non-toxic concentration was assessed using the resazurin method. Briefly, HEK293T-ACE2 cells were cultured at 1 × 10^4 cells/well in a 96-well plate in the presence of different concentrations of the natural products. Vehicle (DMSO)-treated cells were used as a control and normalizer. Resazurin was added 48 h later, and after 3 h, cell viability was determined. Absorbance was measured on the MultiskanTM GO (ThermoScientific, Waltham, MA, USA) at 570 and 630 nm. The MNTC is the maximum concentration with a cytotoxicity lower than 10%.

For C=C1CC/C=C(\C)CC[C@@H]2[C@@H]1CC2(C)C [β-Caryophyllene], the CC50 at 48 h was 183 µg/mL (≈ 896 µM).

System: HEK293T-ACE2 cells
Assay: Cytotoxicity assay, resazurin method
Format: cell-based
Settings: maximum concentration with cytotoxicity lower than 10%
Procedure: as §1

Compared with CC1=C[C@H](O)[C@H]2C[C@@H]1C2(C)C (relative stereo) [cis-Verbenol], C/C=C/[C@H]1OC(=O)C=C[C@H]1OC(C)=O [Acetylphomolactone] is 56-fold lower in “MNTC (maximum non-toxic concentration)” value: 250 µg/mL for the first, 4.5 µg/mL for the second.

First: CC(=O)OC1C=CC(=O)OC1C1OC1C (centres unmarked) [Asperline]
Second: CC(=O)C1COC(O)C1C (centres unmarked) [Botryodiplodin]
The “MNTC (maximum non-toxic concentration)” value of the first is 2.6-fold higher: 7.81 µg/mL for the first, 3 µg/mL for the second.

C=C1CC[C@H]2O[C@]2(C)CC[C@@H]2[C@@H]1CC2(C)C [Caryophyllene Oxide] and C[C@H]1CC[C@@H](C(C)(C)O)CC2=C1CC[C@@H]2C [Guaiol] are within 1.5-fold of each other in “MNTC (maximum non-toxic concentration)” value: 31.25 µg/mL for the first, 33.3 µg/mL for the second.

Going from C=CC(C)(O)CCC=C(C)C (centres unmarked) [Linalool] to CC(O)[C@@H]1NC(=O)c2cccn2C1=O (some centres unmarked) [Macrophominol], the “MNTC (maximum non-toxic concentration)” value falls from 125 µg/mL to 36 µg/mL (3.5-fold).

Going from C=C(C)[C@H]1CC=C(C)CC1 [R-Limonene] to C=C1CC/C=C(\C)CC[C@@H]2[C@@H]1CC2(C)C [β-Caryophyllene], the “MNTC (maximum non-toxic concentration)” value rises from 31.25 µg/mL to 125 µg/mL (4-fold).

Going from Isoasperline to S-Limonene, the “MNTC (maximum non-toxic concentration)” value rises from 7.19 µg/mL to 31.25 µg/mL (4.3-fold).

System: pseudotyped virus carrying the vesicular stomatitis virus glycoprotein G (VSV-G)
Assay: not given
Format: cell-based
Settings: not given

With C=C1CC/C=C(\C)CC[C@@H]2[C@@H]1CC2(C)C [β-Caryophyllene] the “inhibitory activity against the entry of the VSV-G-pseudotyped virus” value was “low inhibitory activity”.
